This experiment addresses lymphocyte-specific protein tyrosine kinase (LCK) (Homo sapiens, UniProt P06239). Kind of experiment: ADP-Glo kinase assay; also fluorescence increase at […] nm on binding LCK after decaging of 3e, reversed by TC-S7003. The class given is biochemical.

lymphocyte-specific protein tyrosine kinase (LCK), sequence (P06239 2-509): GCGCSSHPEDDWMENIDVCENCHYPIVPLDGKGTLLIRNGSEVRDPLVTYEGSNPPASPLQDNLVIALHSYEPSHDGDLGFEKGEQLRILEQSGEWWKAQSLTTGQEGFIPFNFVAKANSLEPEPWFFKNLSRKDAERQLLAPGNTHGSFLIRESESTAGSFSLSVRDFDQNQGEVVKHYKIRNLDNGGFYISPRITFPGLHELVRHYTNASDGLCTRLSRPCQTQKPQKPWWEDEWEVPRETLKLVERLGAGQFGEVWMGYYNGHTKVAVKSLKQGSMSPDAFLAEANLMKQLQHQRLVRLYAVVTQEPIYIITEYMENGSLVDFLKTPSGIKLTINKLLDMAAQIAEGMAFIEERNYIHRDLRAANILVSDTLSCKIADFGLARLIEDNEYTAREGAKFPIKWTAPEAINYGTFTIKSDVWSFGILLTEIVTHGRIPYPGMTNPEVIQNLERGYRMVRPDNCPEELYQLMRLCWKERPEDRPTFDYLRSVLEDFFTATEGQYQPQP

`CC(C)n1nc(C#Cc2ccc3cc(N(C)C)ccc3c2)c2c(N)ncnc21` [compound 1, LCK inhibitor 1] showed a half-inhibitory concentration (IC50) of 2400 nM.

The record behind these values is PMC11077529, “All-photonic kinase inhibitors: light-controlled release-and-report inhibition” (Chemical Science, 2024).
